Data: patent US9333172B2, “Topical skin care composition” (GALDERMA S.A., priority 2002, dated 2016)

Settings: in vivo

Row | Percutaneous absorption of unchanged drug into the systemic circulation | Post-dose plasma concentrations | Number of subjects with quantifiable plasma concentrations (human, 8 weeks) | Subjects with quantifiable plasma concentrations (human, 8 weeks) | Compound
1 | minimal | undetectably low | – | – | CC1(C)O[C@@H]2C[C@H]3[C@@H]4C[C@H](F)C5=CC(=O)C=C[C@]5(C)[C@@]4(F)[C@@H](O)C[C@]3(C)[C@]2(C(=O)CO)O1 [fluocinolone acetonide, (6,11,16)-6,9-difluoro-11,21-dihydroxy-16,17-[(1-methylethylidene)bis(oxy)]-pregna-1,-4-diene-3,20-dione]
2 | minimal | undetectably low | 8 | 18% | Oc1ccc(O)cc1 [hydroquinone, 1,4-benzenediol]
3 | minimal | – | – | – | CC1=C(/C=C/C(C)=C/C=C/C(C)=C/C(=O)O)C(C)(C)CCC1 [tretinoin, (all-E)-3,7-dimethyl-9-(2,6,6-trimethyl-1-cyclohexen-1-yl)-2,4,6,8-nonatetraenoic acid]
